# Laboratory results from patent US4317768A, “Dihydropyridine derivatives as stabilizers for vinyl chloride polymers” (priority 1977, dated 1982).
# “And” between values parts separate entries of the source, which are not always exact repeats. Equal entries are not always repeated.
# Legend:
# [1] = Polarographic study of the oxidation potential; type: physicochemical; conditions: acetonitrile, 0.1 M lithium perchlorate, vitrous carbon electrode, calomel reference
# From the text: By a polarographic study of their oxidation potential, compared to well-known antioxidants such as 2,6-diterbutyl-4-methyl-phenol, 2-terbutyl-4-methoxy-phenol, 4-methoxy-phenol and hydroquinone.
# Reference electrode: Calomel electrode containing a saturated solution of anhydrous lithium perchlorate as bridge liquid.
# Working electrode: Vitrous carbon rotating electrode (2,500 r.p.m.)
# Counter-electrode: Platinum electrode
# Acetonitrile containing less than 0.1% of water and presenting no polarographic waves between -2.5 V and +2.5 V.
# Anhydrous lithium perchlorate containing less than 1% of water.
# A 0.1 M solution of lithium perchlorate in acetonitrile, treated and preserved on a 4 A molecular sieve.
# Amplitude of exploration: 0 to 2 V
# Speed of exploration: 10 mV/second
# Sensitivity: 1.25 μA to 50 μA
# Mean concentration: about 0.3×10^-3 mol/liter
# Between each measurement, the vitrous carbon electrode and the platinum electrode were carefully cleaned with Joseph paper.
# [2] = Comparison with stabilizer G1, rigid co-polymer (12.5 to 13.5% of acetate), 0.5 part, 185° C.
# From the text: Another comparison was made with the following rigid co-polymer: […]
# [3] = Photostabilizing power, PVC plates exposed to the sun, GARDNER scale
# Experimental: (§1) The photostabilizing power of the compounds of the invention was studied by exposing to the sun polyvinyl chloride plates which had been stabilized either by a dihydropyridine of the invention or by 2-phenyl-indole, or again by 2-(3'-methoxy-4'-hydroxy)-indole. This last product is an extremely valuable thermostabilizer for thermoplastic resins and is described in British Pat. No. 1,489,685.
# (§2) The resin given hereunder was prepared by mixing on cylinders at 160° C.:
# (§3) The plates of stabilized polyvinyl chloride, together with a plate which had not been stabilized, were stood in the sun under the same conditions and at the same time. Their colour was measured after 6 hours and 12 hours of exposure.
# (§4) The coloration of the plates was determined according to two methods:
# On the plates themselves, following the GARDNER scale, as in the section on thermostability,
# The sign + means that the coloration lies between the lower unit and the upper half-unit. Thus, 3+ means that the coloration lies between 3 and 3.5. Similarly, the sign - means that the coloration lies between the lower half-unit and the upper unit.
# [4] = Static thermostability (GARDNER method), rigid PVC sheets, 210° C., 0.3 part stabilizer
# Experimental: (§5) This study was carried out according to the GARDNER method, described in British Pat. No. 1,489,685.
# (§6) The reference substance was 2-phenyl-indole, a well-known and widely used stabilizer.
# (§7) The stabilizer (dihydropyridine or 2-phenyl-indole) and the other usual ingredients were mixed with powdered vinyl resins and the mixtures were calendered at a temperature of 160° C. to give rigid sheets.
# (§8) The sheets were then heated in a thermostated oven (185° C. or 210° C.) for different intervals of time until incipient carbonization.
# (§9) The coloration of the samples was compared to a standard scale of coloration, known as the GARDNER scale and was expressed in terms of the reference figures of the GARDNER scale.
# (§10) This study was carried out with the following resin:
# (§11) Polyvinyl chloride resin
# (§12) SL 2016 is a solution of zinc-2-ethyl-hexanoate in a mixture of hydrocarbons boiling between 158° C. and 184° C.
# The first trial was carried out at 210° C. with a resin containing 0.3 part by weight of stabilizer, the sheets being removed from the oven every three minutes over a period of 21 minutes.
# [5] = Comparison with stabilizer G1, 0.1 part, 185° C.
# Experimental: A test was also carried out with the following compound:
# Another test was made with the same resin but containing 0.1 part of stabilizer.
# [6] = Static thermostability (GARDNER method), rigid PVC sheets, 185° C., 0.3 part stabilizer
# Experimental: as §5, §6, §7, §8, §9, §10, §11, §12
# A second trial was performed at a temperature of 185° C., with a resin containing 0.3 part of stabilizer, the samples being removed from the oven every 6 minutes over a period of 24 minutes, then every 3 minutes until the 42nd minute (or until carbonization).
# [7] = Comparison with stabilizer G1, rigid co-polymer, 0.5 part, 185° C.
# From the text: (b) Comparison with stabilizer G1
# Stabilizer G1 is a mixture of 1,4-butanediol-β-aminocrotonate and of β-aminocrotonate of alcohols containing from 16 to 18 carbon atoms.
# [8] = Photostabilizing power, tetrahydrofuran solution of plates exposed to the sun, French Pharmacopeia
# Experimental: as §1, §2, §3, §4
# On a solution of these plates in tetrahydrofuran, the coloration of th solution being measured according to the French Pharmacopeia (IXth edition, II-338).
# [9] = Photostabilizing power, sheets exposed to the sun, co-polymer (a)
# Experimental: (§13) The sheets were exposed to the sun and their colorations were also determined according to the GARDNER method.
# [10] = Colour of the resin after each passage in a blower-extruder
# Experimental: (2) Examination of the colour of the resin after each passage (3 in all) in a blower-extruder, the mould being a 250 ml cylindrical flask.
# Four resins where tested, the first containing 0.2% of 2-phenyl-indole and the others 0.2%, 0.03% and 0.015% of compound 1 respectively.
# [11] = Static thermostability (GARDNER method), rigid PVC sheets, 185° C., equimolecular quantities; conditions: 1.55×10^-3 mol
# Experimental: as §5, §6, §7, §8, §9, §10, §11, §12
# Finally, a trail was performed at 185° C., with resins containing equimolecular quantities of the dihydropyridines or of 2-phenyl-indole, namely 1.55×10^-3 mol. In this case too, the samples were removed from the oven every 6 minutes over a period of 24 minutes and then every 3 minutes until the 42nd minute (or until carbonization).
# [12] = Comparison with 2-phenyl-indole, vinyl chloride-vinyl acetate co-polymer, 185° C.; conditions: 0.3 part
# Experimental: (c) Comparison with 2-phenyl-indole
# A comparative test was made using the following compound:
# The sheets were heated in a ventilated oven at 185° C. and the following results were obtained: […]
# [13] = Comparison with 2-phenyl-indole, vinyl chloride-vinylidene chloride co-polymer, 210° C.; conditions: 0.3 part
# Experimental: A second test was made using the following compound:
# The sheets were heated in a ventilated oven at 210° C. and the following results were obtained: […]
# [14] = Photostabilizing power, sheets exposed to the sun, rigid co-polymer (b)
# Experimental: as §13
smiles,measurement,setting,value
"C#CCOC(=O)C1=C(C)NC(C)=C(C(=O)OCC#C)C1 [Compound 2, 2,6-Dimethyl-3,5-dicarbopropargyloxy-1,4-dihydropyridine]",Oxidation potential,[1],0.80 ± 0.01 volts
same,"coloration, GARDNER scale",[2]; 0 min,1
same,"coloration, GARDNER scale",[2]; 2 min,1
same,"coloration, GARDNER scale",[2]; 4 min,2
same,"coloration, GARDNER scale",[2]; 6 min,3
same,"coloration, GARDNER scale",[2]; 10 min,8.5
same,"coloration, GARDNER scale",[2]; 12 min,13
same,"coloration, GARDNER scale",[2]; 14 min,17
same,"coloration, GARDNER scale","[2]; column without printed time, between 6 and 10 min",4
same,Coloration of the plates GARDNER,[3]; exposure to sun 0,1
same,Coloration of the plates GARDNER,[3]; exposure to sun 6h,1
same,Coloration of the plates GARDNER,[3]; exposure to sun 12h,1.5
same,"coloration, GARDNER scale",[4]; 0 min,1
same,"coloration of the resins, in words",[4]; 0 to 3 minutes,considerably less
same,"coloration, GARDNER scale",[4]; 3 min,1
same,"thermostabilizing power compared to 2-phenyl-indole, in words",[4]; 210° C.,greatly superior to 2-phenyl-indole
same,"coloration, GARDNER scale",[4]; 6 min,1
same,"coloration, GARDNER scale",[4]; 9 min,4
same,"coloration, GARDNER scale",[4]; 12 min,8
same,"coloration, GARDNER scale",[4]; 15 min,12
same,"coloration, GARDNER scale",[4]; 18 min,Burnt
same,"coloration, GARDNER scale",[5]; 0 min,1
same,"coloration, GARDNER scale",[5]; 2 min,1
same,"coloration, GARDNER scale",[5]; 4 min,2
same,"coloration, GARDNER scale",[5]; 6 min,4
same,"coloration, GARDNER scale",[5]; 8 min,8
same,"coloration, GARDNER scale",[5]; 10 min,10
same,"coloration, GARDNER scale",[5]; 12 min,12
same,"coloration, GARDNER scale",[5]; 14 min,13
same,"coloration, GARDNER scale",[6]; 0 min,1
same,"coloration, GARDNER scale",[6]; 6 min,1
same,"coloration, GARDNER scale",[6]; 12 min,2
same,"coloration, GARDNER scale",[6]; 18 min,4
same,"coloration, GARDNER scale",[6]; 24 min,6
same,"coloration, GARDNER scale",[6]; 27 min,7
same,"coloration, GARDNER scale",[6]; 30 min,8.5
same,"coloration, GARDNER scale",[6]; 33 min,9
same,"coloration, GARDNER scale",[6]; 36 min,10.5
same,"coloration, GARDNER scale",[6]; 39 min,12
same,"coloration, GARDNER scale",[6]; 42 min,18
same,"coloration, GARDNER scale",[7]; 0 min,1
same,"coloration, GARDNER scale",[7]; 2 min,1
same,"coloration, GARDNER scale",[7]; 4 min,1.5
same,"coloration, GARDNER scale",[7]; 6 min,5
same,"coloration, GARDNER scale",[7]; 8 min,10
same,"coloration, GARDNER scale",[7]; 10 min,12
same,"coloration, GARDNER scale",[7]; 12 min,16
same,Coloration of the plates FRENCH PHARMACOPEIA,[8]; exposure to sun 0,JV6
same,Coloration of the plates FRENCH PHARMACOPEIA,[8]; exposure to sun 6h,JV6
same,Coloration of the plates FRENCH PHARMACOPEIA,[8]; exposure to sun 12h,JV5
"c1ccc(-c2cc3ccccc3[nH]2)cc1 [2-Phenyl-indole, 2-phenyl-indole, reference compound]",Colour in GARDNER degrees,[9]; After 24 hours,6 GARDNER degrees and 8 GARDNER degrees
same,Colour in GARDNER degrees,[9]; Time 0,1 GARDNER degrees
same,colour of the flask,[10]; after the second passage,blue color tending towards green
same,colour of the flask,[10]; after the third passage,greenish-blue
same,Coloration of the plates GARDNER,[3]; exposure to sun 6h,3
same,"coloration, GARDNER scale",[4]; 0 min,1
same,"coloration, GARDNER scale",[11]; 0 min,1
same,"coloration, GARDNER scale",[11]; 6 min,2
same,"coloration, GARDNER scale",[11]; 12 min,3
same,"coloration, GARDNER scale",[11]; 18 min,10
same,"coloration, GARDNER scale",[11]; 24 min,13
same,"coloration, GARDNER scale",[11]; 27 min,14
same,"coloration, GARDNER scale",[11]; 30 min,14
same,"coloration, GARDNER scale",[11]; 33 min,14
same,"coloration, GARDNER scale",[11]; 36 min,16
same,"coloration, GARDNER scale",[11]; 39 min,16
same,"coloration, GARDNER scale",[11]; 42 min,Burnt
same,"coloration, GARDNER scale",[12]; 0 min,1
same,"coloration, GARDNER scale",[12]; 2 min,1
same,"coloration, GARDNER scale",[12]; 4 min,2
same,"coloration, GARDNER scale",[12]; 6 min,3
same,"coloration, GARDNER scale",[12]; 8 min,8
same,"coloration, GARDNER scale",[12]; 10 min,12
same,"coloration, GARDNER scale",[12]; 12 min,14
same,"coloration, GARDNER scale",[12]; 14 min,17
same,"coloration, GARDNER scale",[13]; 0 min,2 and 1
same,"coloration, GARDNER scale",[13]; 3 min,2 and 1
same,"coloration, GARDNER scale",[13]; 6 min,5 and 4
same,"coloration, GARDNER scale",[13]; 9 min,8.5 and 10
same,"coloration, GARDNER scale",[13]; 12 min,14 and 15
same,"coloration, GARDNER scale",[13]; 15 min,16
same,Colour in GARDNER degrees,[14]; After 24 hours,17 GARDNER degrees and 13 GARDNER degrees
same,Colour in GARDNER degrees,[14]; Time 0,1.5 GARDNER degrees and 1 GARDNER degrees
same,"coloration, GARDNER scale",[6]; 0 min,1
same,"coloration, GARDNER scale",[6]; 6 min,1
same,"coloration, GARDNER scale",[6]; 12 min,3 and 4 and 5
same,"coloration, GARDNER scale",[6]; 24 min,13 and 11
same,"coloration, GARDNER scale",[6]; 27 min,14 and 13
same,"coloration, GARDNER scale",[6]; 30 min,15 and 14
same,"coloration, GARDNER scale",[6]; 33 min,15 and 14
same,"coloration, GARDNER scale",[6]; 36 min,16 and 14 and 15
same,"coloration, GARDNER scale",[6]; 39 min,16 and 15
